Measured values taken from patent US8673849B2, “Lactadherin-derived peptides as antiviral agents” (priority 2010, dated 2014).
Where a SMILES comes first, the peptide text is derived from it. Where no end group is shown, it is not given here.

B1: human lactadherin: purified human lactadherin, glycoprotein of milk fat globule membranes, 387 amino acids (protein, UniProt Q08431 24-387, looked up)
Lactadherin: LDICSKNPCHNGGLCEEISQEVRGDVFPSYTCTCLKGYAGNHCETKCVEPLGLENGNIANSQIAASSVRVTFLGLQHWVPELARLNRAGMVNAWTPSSNDDNPWIQVNLLRRMWVTGVVTQGASRLASHEYLKAFKVAYSLNGHEFDFIHDVNKKHKEFVGNWNKNAVHVNLFETPVEAQYVRLYPTSCHTACTLRFELLGCELNGCANPLGLKNNSIPDKQITASSSYKTWGLHLFSWNPSYARLDKQGNFNAWVAGSYGNDQWLQVDLGSSKEVTGIITQGARNFGSVQFVASYKVAYSNDSANWTEYQDPRTGSSKIFPGNWDNHSHKKNLFETPILARYVRILPVAWHNRIALRLELLGC
B2: bovine lactadherin: bovine lactadherin, glycoprotein of milk fat globule membranes, 427 amino acid residues (protein, UniProt Q95114 19-427, looked up)
Lactadherin: ASGDFCDSSLCLHGGTCLLNEDRTPPFYCLCPEGFTGLLCNETEHGPCFPNPCHNDAECQVTDDSHRGDVFIQYICKCPLGYVGIHCETTCTSPLGMQTGAIADSQISASSMHLGFMGLQRWAPELARLHQTGIVNAWTSGNYDKNPWIQVNLMRKMWVTGVVTQGASRAGSAEYLKTFKVAYSTDGRQFQFIQVAGRSGDKIFIGNVNNSGLKINLFDTPLETQYVRLVPIICHRGCTLRFELLGCELNGCTEPLGLKDNTIPNKQITASSYYKTWGLSAFSWFPYYARLDNQGKFNAWTAQTNSASEWLQIDLGSQKRVTGIITQGARDFGHIQYVAAYRVAYGDDGVTWTEYKDPGASESKIFPGNMDNNSHKKNIFETPFQARFVRIQPVAWHNRITLRVELLGC

How the values were obtained:
[1] = test system: human rotavirus strain Wa; type: cell-based; settings: for anti-rotavirus activity (in words): statement on Table 6
Description: To cultivate the rotavirus, the cell line MA-104 (monkey foetal kidney cells), obtained from the Cell Substrata Centre of the Experimental Animal Disease Institute, Brescia, Italy, was used. This cell line is cultured as a monolayer in EAGLE minimum essential medium (MEM) containing 5% heat-inactivated (56° C. for 30 minutes) bovine foetal serum (Sigma) and is maintained at 37° C. at 5% CO2.
For the in vitro infection assay, the cell line MA-104 and the human rotavirus strain Wa (TC adapted), obtained from the American Type Culture Collection (ATCC VR-2018) and propagated in MA-104 cells, were used.
To set up the assay, cells were seeded in 96-well plates and, once 80% confluence was achieved, were pre-treated for 1 hour with increasing concentrations of RGD- and/or DGE-containing peptides or their mutated counterparts and incubated at 37° C. The peptides containing the RGD or the DGE motif were used either alone or in combination. Cells were then washed with medium and infected with the pre-activated virus (5 μg/ml tripsin for 30 minutes at 37° C.) in the presence of the peptides. After a 1 hour incubation cells were washed with medium and incubated in medium containing 0.5 μg/ml tripsin and the peptides at 37° C. for 20 hours. The infected cells were visualised through an immunoperoxidase assay, using murine monoclonal antibodies specific for the capsidic protein VP6 of the rotavirus (Abcam) and the kit “UltraTech HRP Streptavidin-Biotin detection system” (Beckman Coulter). The infected cells were counted by observation under the optical microscope and the percentage of infection calculated by comparison of treated with non-treated cells.

[2] = test system: simian rotavirus strain SA11; settings: MA104 cells, dose-dependent; Graham et al.; cited from earlier work
[3] = target: integrin proteins on the cell surface
[4] = target: integrin proteins on the cell surface; remark: listed apart in the source
modified porcine trypsin = target: T1, modified porcine trypsin (Sus scrofa, UniProt P00761); type: in vitro ADME
T1 construct: purchased Promega
T1 sequence (P00761 9-231): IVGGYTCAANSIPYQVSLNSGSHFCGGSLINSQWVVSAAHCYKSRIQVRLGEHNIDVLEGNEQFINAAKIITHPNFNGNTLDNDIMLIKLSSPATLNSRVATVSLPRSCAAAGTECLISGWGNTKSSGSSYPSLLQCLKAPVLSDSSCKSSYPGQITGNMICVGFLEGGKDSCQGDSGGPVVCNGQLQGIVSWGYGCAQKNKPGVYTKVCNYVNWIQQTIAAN
Description: The peptide SEQ ID NO: 1 was dissolved in ultra pure H2O to obtain a final concentration of 10 mg/ml. Dilutions from 1:10 to 1:10,000 were obtained. All concentrations were tested by MALDI-TOF analyses. 0.5 μl of samples from dilutions 1:10, 1:100, 1:1,000, 1:10,000 were spotted onto a MALDI target plate and left to dry at RT. 0.5 μl of α-cyano-4-hydroxy-cinnamic acid in 30% acetonitrile, 0.1% TFA (HCCA matrix solution) were added to each sample and left to dry under vacuum. Spectra were obtained using a Bruker Ultraflex II MALDI-TOF/TOF mass spectrometer (Bruker Daltonics) in reflectron and positive ion mode. External calibration was performed using “Peptide calibration standard” from Bruker Daltonics.
To evaluate the digestibility of the SEQ ID NO: 1 peptide with trypsin, […] of a 0.2 μg/μl solution (25 mM NH4HCO3) of modified porcine trypsin (Promega) were added to 150 μl of the 10 mg/ml peptide solution ((25 mM NH4HCO3) enzyme to protein ratio 1:100). The sample was incubated at 37° C. and 0.5 μl were collected at different time of digestion: 5′, 15′, 30′, 60′ 90′ 120′. Each samples was spotted on MALDI target and spectra were collected as already described in Example 4a. In FIG. 5 the time course experiment evaluated by MALDI TOF analyses is shown.

[5] = target: integrin proteins on the cell surface; remark: listed apart in the source
[6] = target: integrin proteins on the cell surface; remark: listed apart in the source
rotavirus = settings: purified lactadherin; Kvistgaard et al., 2004; cited from earlier work
[7] = target: integrin proteins on the cell surface; remark: listed apart in the source

| Molecule | IC50 [1] [µM] | IC50 (μg/ml) [1] [µg/mL] | IC50 (µg/ml), inhibition of human rotavirus Wa infection of MA-104 cells [3] [µg/mL] | further results |
| --- | --- | --- | --- | --- |
| C[C@H](NC(=O)[C@H](CCC(=O)O)NC(=O)CNC(=O)[C@@H](N)CC(=O)O)C(=O)O [DGEA, D-G-E-A, reference compound] (H-DGEA-OH; N-terminus and C-terminus assumed) | 311 | 121.4 |  | inhibition of rotavirus binding to and infection of cells (in words) [2]: inhibit |
| Control peptide D-G-E-A (Graham et al.) |  |  | 121 | IC50 (µM), inhibition of human rotavirus Wa infection of MA-104 cells [3]: 311 µM |
| Dendrimeric peptide of formula (VII): [[(HRGDVFT)2-Lys][(NDGECHV)2-Lys]]-Lys-β-Ala-NH2 |  |  |  | IC50, inhibition of rotavirus infection, infected cells counted by immunoperoxidase [4]: 3.6 µM |
| EVRGDVFP [Hu-RGD, E-V-R-G-D-V-F-P, reference compound] | 104 | 95.3 |  |  |
| GPRP |  |  |  | inhibition of rotavirus binding to and infection of cells (in words) [2]: inhibit |
| NNDGECHVIDDSHRGDVFTQ [SEQ ID NO: 7] | 13.5 | 30.51 |  | anti-rotavirus activity (in words) [1]: show antiviral activity |
| QNAGECHV [pAGE, Q-N-A-G-E-C-H-V, reference compound] | 257 | 219.6 |  |  |
| QNAGECHVIDDSHRGEVFTQ [SEQ ID NO: 10] | > 220 | >500 |  | anti-rotavirus activity (in words) [1]: completely lost any anti-rotavirus activity |
| QNDGECHV [SEQ ID NO: 3, Q-N-D-G-E-C-H-V] | 17.3 | 15.6 |  |  |
| QNDGECHVIDDSDRGDVFTQ [SEQ ID NO: 11] | 10.5 | 23.90 |  | anti-rotavirus activity (in words) [1]: maintains its anti-rotavirus activity |
| QNDGECHVIDDSHRGDVFQT [SEQ ID NO: 9] | 4.17 | 9.469 |  | anti-rotavirus activity (in words) [1]: show antiviral activity |
| QNDGECHVIDDSHRGDVFSQ [SEQ ID NO: 8] | 6.35 | 14.43 |  | anti-rotavirus activity (in words) [1]: show antiviral activity |
| QNDGECHVIDDSHRGDVFTQ [SEQ ID NO: 1, QNDGECHVIDDSHRGDVFTQ] | 1.72 | 3.9 |  | integrity of the peptide on trypsin digestion (modified porcine trypsin): didn't affect the integrity |
| SHRGDVFI [Bo-RGD, S-H-R-G-D-V-F-I, reference compound] | 395 | 367.1 |  |  |
| SHRGDVFT [SEQ ID NO: 5, S-H-R-G-D-V-F-T] | 111 | 101.5 |  |  |
| SHRGEVFT [pRGE, S-H-R-G-E-V-F-T, reference compound] | 600 | 558.5 |  |  |
| pAGE: Q-N-A-G-E-C-H-V (DGE -> AGE mutation) (peptide) |  |  | 220 | IC50 (µM), inhibition of human rotavirus Wa infection of MA-104 cells [3]: 257 µM |
| pRGE: S-H-R-G-E-V-F-T (RGD -> RGE mutation) (peptide) |  |  | 558 | IC50 (µM), inhibition of human rotavirus Wa infection of MA-104 cells [3]: 600 µM |
| QNDGECHV (not fully specified) [peptidic compound of SEQ ID NO: 3 (Q-N-D-G-E-C-H-V)] |  |  | 15.6 | IC50 (µM), inhibition of human rotavirus Wa infection of MA-104 cells [3]: 17.3 µM; % of inhibition of rotavirus infection at 100 µg/ml (96.6 µM), one representative experiment (% of inhibition) [5]: 52.7 |
| QNDGECHVIDDSHRGDVFTQ (not fully specified) [peptidic compound of SEQ ID NO: 1 (QNDGECHVIDDSHRGDVFTQ)] |  |  | 3.9 | % of inhibition of rotavirus infection at 100 µg/ml (36.6 µM), one representative experiment (% of inhibition) [6]: 61; IC50 (µM), inhibition of human rotavirus Wa infection of MA-104 cells [3]: 1.72 µM |
| EVRGDVFP (not fully specified) [Hu-RGD: E-V-R-G-D-V-F-P] |  |  | 95.3 | IC50 (µM), inhibition of human rotavirus Wa infection of MA-104 cells [3]: 104 µM |
| SHRGDVFI (not fully specified) [Bo-RGD: S-H-R-G-D-V-F-I] |  |  | 367 | IC50 (µM), inhibition of human rotavirus Wa infection of MA-104 cells [3]: 395 µM |
| B1 |  |  |  | activity against rotavirus infection (in words) (rotavirus): active against rotavirus infection |
| B2 |  |  |  | activity against rotavirus infection (in words) (rotavirus): does not possess this activity |
| SHRGDVFT (not fully specified) [peptidic compound of SEQ ID NO: 5 (S-H-R-G-D-V-F-T)] |  |  | 102 | IC50 (µM), inhibition of human rotavirus Wa infection of MA-104 cells, infected cells counted by immunoperoxidase [3]: 111 µM; % of inhibition of rotavirus infection at 100 µg/ml (93.3 µM), one representative experiment (% of inhibition) [7]: 46.9 |
